According to US20040137052A1, “Acid-containing preparations” (priority 2001, published 2004):

What was measured:
[1] = Solubility of compound A in Britton-Robinson buffer at each pH; format: physicochemical; settings: 20° C., 30 minutes
Procedure: Regarding a compound A, the solubility was measured by measuring the solubility in the Britton-Robinson buffer at 20° C. at each pH of pHs 1, 3, 5, 7, 9, 11 and 13. The compound A was added to a solution at each pH, the mixture was vigorously stirred for 30 seconds every 5 minutes, and an amount of a physiologically active substance dissolved at a time point of 30 minutes was measured (according to a method of confirming the solubility described in Japanese Pharmacopoeia, general rules).

| SMILES | melting point [°C] | solubility on an acidic side or an alkaline side ([1]; acidic or alkaline pH) | solubility at neutral pH ([1]; neutral pH) |
| --- | --- | --- | --- |
| CCOC(=O)CNC(=O)c1cn2nc(NCCCN3CCC(OC(c4ccccc4)c4ccccc4)CC3)ccc2n1 (hydrate or solvate) [Reference Example 7, N-[6-[3-[4-(diphenylmethoxy)piperidino]propylamino]imidazo[1,2-b]pyridazine-2-carbonyl]glycine ethyl ester] | 172 to 174 |  |  |
| CC(C)(C(=O)O)c1cn2nc(NCCCN3CCC(OC(c4ccccc4)c4ccccc4)CC3)ccc2n1.O.O (hydrate or solvate) [compound A, 2-[6-[3-[4-(diphenylmethoxy)piperidino]propylamino]imidazo[1,2-b]pyridazin-2-yl]-2-methylpropionic acid dihydrate] | 203 to 205 |  |  |
| CC(C)(C(=O)O)c1cn2nc(NCCCN3CCC(OC(c4ccccc4)c4ccccc4)CC3)ccc2n1 [Reference Example 4, 2-[6-[3-[4-(diphenylmethoxy)piperidino]propylamino]imidazo[1,2-b]pyridazin-2-yl]-2-methylpropionic acid] | 205 to 206 |  |  |
| CC(C)(C(=O)O)c1cn2nc(NCCCN3CCC(OC(c4ccccc4)c4ccccc4)CC3)ccc2n1.O.O [compound A, 2-[6-[3-[4-(diphenylmethoxy)piperidino]propylamino]imidazo[1,2-b]pyridazin-2-yl]-2-methylpropionic acid dihydrate] |  | enhanced solubility | hardly dissolved |
